The supplement of paper PMC5412046
Counter-ions that a name gives are not always drawn.

Experiments:
SB.msgc-1 = experiment: AC50 for growth inhibition (viability) (log10 M); higher = less potent; settings: SB.msgc-1 (sporadic gastric cancer)
How it was run: (§1)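 A four-parameter fit of viability, normalised to DMSO, gave the log half-maximal activity concentration, and only high-quality curve classes were kept. Cells came from hereditary or sporadic gastric cancer patients, 500 per 1536 well, and were dosed for 48 h at 11 threefold dilutions from a final 46 μM. Readout was CellTiter-Glo luminescence on a ViewLux.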

SB.mhdgc-1 = experiment: as above; settings: SB.mhdgc-1 (hereditary c.1380delA CDH1 gastric cancer)
How it was run: as §1

| SMILES | AC50 for growth inhibition (log10 M) (SB.msgc-1) | AC50 for growth inhibition (log10 M) (SB.mhdgc-1) |
| --- | --- | --- |
| COC1=CC2=C(C=C1OC)[C@H]3[C@@H](CO2)OC4=C(C=CC5=C4\C=C/C(C)(C)O5)C3=O [Deguelin] | -5.23 | -5.38 |
| C[C@]12CC[C@H]3[C@@H](C\C=C/4C[C@@H](O)CC[C@]34C)[C@@H]1CCC2=O [Dehydroepiandrosterone] | -4.78 | -5.78 |
| CC(C)C[C@H](NC(=O)[C@@H](NC(=O)c1cccc(-c2ccccc2)n1)[C@@H](C)O)B(O)O [Delanzomib] | -7.43 | -7.38 |
| CN[C@H]1CCC2=CC(=C(OC)C(=C2C/3=C/C=C(OC)\C(=O)/C=C13)OC)OC [Demecolcine] | -8.83 | -8.13 |
| ClC1=CC=C(C=C1)C(C#N)C2=C(Cl)C=C(C=C2Cl)N3\N=C/C(=O)NC3=O (stereo unspecified) [Diclazuril] | -4.73 | -4.78 |
| CC/C(=C(/CC)c1ccc(O)cc1)c1ccc(O)cc1 [Diethylstilbestrol] | -4.83 | -5.53 |
| C[C@H]1O[C@H](C[C@H](O)[C@@H]1O)O[C@H]2[C@@H](O)C[C@@H](O[C@@H]2C)O[C@H]3[C@@H](O)C[C@@H](O[C@@H]3C)O[C@H]4CC[C@@]5(C)[C@H](CC[C@@H]6[C@@H]5C[C@@H](O)[C@]7(C)[C@H](CC[C@]67O)C/8=C/C(=O)OC8)C4 [Digoxin] | -6.62 | -6.62 |
| O=C1c2c(O)cc(O)cc2O[C@H](c2cc(O)c(O)c(O)c2)[C@H]1O [Dihydromyricetin] | -5.23 | -5.33 |
| c1ccc2c(Cc3c[nH]c4ccccc34)c[nH]c2c1 [Diindolylmethane] | -5.63 | -6.13 |
| COC(=O)/C=C/C(=O)OC [Dimethyl fumarate] | -5.48 | -5.68 |
| CCc1cnn2c(NCc3ccc[n+]([O-])c3)cc(N3CCCC[C@H]3CCO)nc12 [Dinaciclib] | -7.88 | -8.03 |
| C[C@@H]1CC[C@@]2(OC1)O[C@H]3C[C@H]4[C@@H]5C/C=C6/C[C@H](CC[C@]6(C)[C@H]5CC[C@]4(C)[C@H]3[C@@H]2C)O[C@@H]7O[C@H](CO)[C@@H](O[C@@H]8O[C@@H](C)[C@H](O)[C@@H](O)[C@H]8O)[C@H](O)[C@H]7O[C@@H]9O[C@@H](C)[C@H](O)[C@@H](O)[C@H]9O [Dioscin] | -5.23 | -5.38 |
| COC1=CC=C(C=C1O)C/2=C/C(=O)C3=C(O2)C=C(O[C@@H]4O[C@H](CO[C@@H]5O[C@@H](C)[C@H](O)[C@@H](O)[C@H]5O)[C@@H](O)[C@H](O)[C@H]4O)C=C3O [Diosmin] | -5.58 | -5.03 |
| CCN(CC)C(=S)SSC(=S)N(CC)CC [Disulfiram] | -7.28 | -7.78 |
| c1cc(-c2cnn3cc(-c4ccc(OCCN5CCCCC5)cc4)cnc23)ccn1 [Dorsomorphin] | -4.78 | -4.83 |
| CCOC(=O)N1CCN(/[N+]([O-])=N/Oc2cc(O/N=[N+](\[O-])N3CCN(C(=O)OCC)CC3)c([N+](=O)[O-])cc2[N+](=O)[O-])CC1 [Double JS-K] | -4.63 | -5.03 |
| CN1CCN(CC1)C2=CC3=C([NH]C(=N3)C/4=C(\N)C5=C(F)C=CC=C5NC4=O)C=C2 [Dovitinib] | -4.73 | -4.78 |
| C=C1/C(=C\C=C2/CCC[C@]3(C)[C@@H]([C@H](C)/C=C/[C@H](C)C(C)C)CC[C@@H]23)C[C@@H](O)C[C@@H]1O [Doxercalciferol] | -6.23 | -6.73 |
| C[C@H]1O[C@H]([C@H](O)[C@@H]1O)N2\C=C(F)/C(=O)NC2=O [Doxifluridine] | -5.33 | -6.18 |
| COc1cccc2c1C(=O)c1c(O)c3c(c(O)c1C2=O)C[C@@](O)(C(=O)CO)C[C@@H]3O[C@H]1C[C@H](N)[C@H](O)[C@H](C)O1 [Doxorubicin] | -6.43 | -7.33 |
| CCCCc1oc2ccc(NS(C)(=O)=O)cc2c1C(=O)c1ccc(OCCCN(CCCC)CCCC)cc1 [Dronedarone] | -4.63 | -4.73 |
| Cc1cc(Cl)ccc1OCCCC(=O)NO [Droxinostat] | -4.83 | -5.98 |
| CNCC[C@H](Oc1cccc2ccccc12)c1cccs1 [Duloxetine hydrochloride] | -5.58 | -5.53 |
| C[C@]12CC[C@H]3[C@@H](CC[C@H]4NC(=O)\C=C/[C@]34C)[C@@H]1CC[C@@H]2C(=O)NC5=CC(=CC=C5C(F)(F)F)C(F)(F)F [Dutasteride] | -4.93 | -4.78 |

| SMILES | AC50 for growth inhibition (log10 M) (SB.msgc-1) | AC50 for growth inhibition (log10 M) (SB.mhdgc-1) |
| --- | --- | --- |
| CCOc1cc2c(c(F)c1OCC)C(=N)N(CC(=O)c1cc(N3CCOCC3)c(OC)c(C(C)(C)C)c1)C2 [E5555] | -4.68 | -5.03 |
| COc1ccc([S+](=O)([O-])Nc2cccnc2Nc2ccc(O)cc2)cc1 [E-7010] | -6.93 | -5.83 |
| Cc1ccccc1C(=O)c1ccc(Nc2ccc(Br)cc2N)cc1Cl [EO-1428] | -4.78 | -4.93 |
| CC1(C)C(N(O)C(=O)Nc2ccc(Cl)cc2)N(c2ccc(Cl)cc2)C(=O)N1CC(=O)N/N=C/C=C/c1ccc([N+](=O)[O-])o1 (stereo unspecified) [Eeyarestatin I] | -5.03 | -5.08 |
| CCC(=C/[C@H](C)C/C=C/C(C)=C/[C@@H](C)C(=O)[C@@H](C)[C@H](O)[C@@H](C)C/C(C)=C/C(=O)O)/C=C/[C@@H]1OC(=O)C=C[C@@H]1C [Elactocin] | -7.06 | -7.66 |
| COC1=CC2=C(C=C1CC3=C(F)C(=CC=C3)Cl)C(=O)\C(=C/N2[C@H](CO)C(C)C)C(O)=O [Elvitegravir] | -4.68 | -4.78 |
| CC[C@H]1CN2CCc3cc(OC)c(OC)cc3[C@@H]2C[C@@H]1C[C@H]1NCCc2cc(OC)c(OC)cc21 [Emetine] | -6.83 | -5.68 |
| NC/1=N/C(=O)C2=C(N1)[N](C=N2)[C@@H]3C[C@H](O)[C@@H](CO)C3=C [Entecavir] | -5.28 | -4.78 |
| Nc1ccccc1NC(=O)c1ccc(CNC(=O)OCc2cccnc2)cc1 [Entinostat] | -5.88 | -4.83 |
| C[N]1C=C(C2=CC=CC=C12)\C3=C(\C(=O)NC3=O)C4=C[N](C5CCN(CC5)CC6=NC=CC=C6)C7=C4C=CC=C7 [Enzastaurin] | -4.98 | -4.98 |
| COc1cccc2c1C(=O)c1c(O)c3c(c(O)c1C2=O)C[C@@](O)(C(=O)CO)C[C@@H]3O[C@H]1C[C@H](N)[C@@H](O)[C@H](C)O1 [Epirubicin hydrochloride] | -6.18 | -6.93 |
| C#Cc1cccc(Nc2ncnc3cc(OCCOC)c(OCCOC)cc23)c1 [Erlotinib hydrochloride] | -5.63 | -6.38 |
| C[C@]12CC[C@@H]3c4ccc(O)cc4CC[C@H]3[C@@H]1[C@@H](O)[C@@H](O)[C@@H]2O [Estetrol] | -4.68 | -4.88 |
| C[C@]12CC[C@@H]3c4ccc(O)cc4CC[C@H]3[C@@H]1CC[C@@H]2O [Estradiol] | -4.93 | -5.28 |
| C#C[C@]1(O)CC[C@H]2[C@@H]3CCc4cc(O)ccc4[C@H]3CC[C@@]21C [Ethinylestradiol] | -4.83 | -4.78 |
| CCC(=O)N[C@H]1CC[C@H](C(=O)N(C)c2ccc(-c3nc4ccccc4o3)cc2)C1 [FASN BI] | -5.93 | -5.93 |
| O=C1c2ccccc2-[n+]2ccc3c([nH]c4ccccc43)c21 [Fascaplysin] | -6.18 | -5.93 |
| COC(=O)Nc1nc2cc(Sc3ccccc3)ccc2[nH]1 [Fenbendazole] | -5.53 | -6.63 |
| CC1=C(/C=C/C(C)=C/C=C/C(C)=C/C(=O)Nc2ccc(O)cc2)C(C)(C)CCC1 [Fenretinide] | -4.52 | -4.67 |
| CC(C)(C)NC(=O)[C@H]1CC[C@H]2[C@@H]3CC[C@H]4NC(=O)\C=C/[C@]4(C)[C@H]3CC[C@]12C [Finasteride] | -5.78 | -6.23 |
| O=C(NCC1CCCCN1)c1cc(OCC(F)(F)F)ccc1OCC(F)(F)F (stereo unspecified) [Flecainide] | -5.03 | -5.03 |
| OC[C@H]1O[C@H](C[C@@H]1O)N2\C=C(F)/C(=O)NC2=O [Floxuridine] | -6.48 | -7.78 |
| COC(=O)Nc1nc2cc(C(=O)c3ccc(F)cc3)ccc2[nH]1 [Flubendazole] | -6.23 | -5.23 |
| Nc1nc(F)nc2c1ncn2[C@@H]1O[C@H](COP(=O)(O)O)[C@@H](O)[C@@H]1O [Fludarabine phosphate] | -4.98 | -5.13 |
